In PubChem BioAssay AID248 (DTP/NCI, 2004):
Several values for one entry are separate records, joined by “and”; a condition that tells them apart may be missing. Identical values can stand only once. Inconclusive results and toxic doses are left out. Rule as the data show it: active = T/C of 150% or more; inactive = T/C below 125%.

System: L1210 leukemia ip in BDF1 mice, survival T/C
Assay: NCI In Vivo Anticancer Drug Screen. Data for tumor model L1210 Leukemia (intraperitoneal) in B6D2F1 (BDF1) mice
Conditions: endpoint: mean survival time, higher = longer survival
Summary of the method: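 Transplanted-tumor mice were given test agent; controls received vehicle only. Survival readings from the two groups were divided (treated over control).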

[1] = dose: 100.0 mg/kg/injection, schedule: Q01DX001 (ip), vehicle: saline
[2] = dose: 100.0 mg/kg/injection, schedule: Q01DX009 (ip), vehicle: saline
[3] = dose: 100.0 mg/kg/injection, schedule: Q04DX002 (ip), vehicle: saline
[4] = dose: 200.0 mg/kg/injection, schedule: Q01DX001 (ip), vehicle: saline
[5] = dose: 200.0 mg/kg/injection, schedule: Q01DX009 (ip), vehicle: saline
[6] = dose: 200.0 mg/kg/injection, schedule: Q04DX002 (ip), vehicle: saline
[7] = dose: 400.0 mg/kg/injection, schedule: Q01DX009 (ip), vehicle: saline
[8] = dose: 400.0 mg/kg/injection, schedule: Q04DX002 (ip), vehicle: saline
[9] = dose: 100.0 mg/kg/injection, schedule: Q04DX003 (ip), vehicle: Klucel (hydroxypropylcellulose) (HPC)
[10] = dose: 200.0 mg/kg/injection, schedule: Q04DX003 (ip), vehicle: Klucel (hydroxypropylcellulose) (HPC)
[11] = dose: 400.0 mg/kg/injection, schedule: Q04DX003 (ip), vehicle: Klucel (hydroxypropylcellulose) (HPC)
[12] = dose: 400.0 mg/kg/injection, schedule: Q01DX001 (ip), vehicle: saline
[13] = dose: 100.0 mg/kg/injection, schedule: Q01DX009 (ip), vehicle: Klucel (hydroxypropylcellulose) (HPC)
[14] = dose: 200.0 mg/kg/injection, schedule: Q01DX009 (ip), vehicle: Klucel (hydroxypropylcellulose) (HPC)
[15] = dose: 400.0 mg/kg/injection, schedule: Q01DX009 (ip), vehicle: Klucel (hydroxypropylcellulose) (HPC)
[16] = dose: 50.0 mg/kg/injection, schedule: Q01DX009 (ip), vehicle: saline
[17] = dose: 100.0 mg/kg/injection, schedule: Q04DX003 (ip), vehicle: saline
[18] = dose: 12.5 mg/kg/injection, schedule: Q01DX009 (ip), vehicle: saline with Tween-80
[19] = dose: 25.0 mg/kg/injection, schedule: Q01DX009 (ip), vehicle: saline with Tween-80
[20] = dose: 50.0 mg/kg/injection, schedule: Q01DX009 (ip), vehicle: saline with Tween-80
[21] = dose: 100.0 mg/kg/injection, schedule: Q01DX009 (ip), vehicle: saline with Tween-80
[22] = dose: 200.0 mg/kg/injection, schedule: Q01DX009 (ip), vehicle: saline with Tween-80
[23] = dose: 400.0 mg/kg/injection, schedule: Q01DX009 (ip), vehicle: saline with Tween-80
[24] = dose: 100.0 mg/kg/injection, schedule: Q04DX003 (ip), vehicle: saline with Tween-80
[25] = dose: 200.0 mg/kg/injection, schedule: Q04DX003 (ip), vehicle: saline
[26] = dose: 200.0 mg/kg/injection, schedule: Q04DX003 (ip), vehicle: saline with Tween-80
[27] = dose: 400.0 mg/kg/injection, schedule: Q04DX003 (ip), vehicle: saline with Tween-80
[28] = dose: 100.0 mg/kg/injection, schedule: Q01DX001 (ip), vehicle: carboxymethylcellulose (CMC)
[29] = dose: 200.0 mg/kg/injection, schedule: Q01DX001 (ip), vehicle: carboxymethylcellulose (CMC)

Measured: T/C

CC1OCCCCO1
inactive: dose: 50.0 mg/kg/injection, schedule: Q01DX001 (ip), vehicle: saline 106 % of control | [1] 102 % of control | [2] 96 % of control and 112 % of control | [3] 108 % of control and 86 % of control | [4] 103 % of control | [5] 102 % of control and 108 % of control | [6] 93 % of control and 100 % of control | [7] 98 % of control and 112 % of control | [8] 93 % of control and 95 % of control

CCS(=O)(=O)c1ccc(NC(=O)OC2CCC3(C)C(=CCC4C3CCC3(C)C(C(C)CCCC(C)C)CCC43)C2)cc1 (configuration not stated)
inactive: dose: 100.0 mg/kg/injection, schedule: Q01DX001 (sc), vehicle: steriod suspending solution 97 % of control | dose: 200.0 mg/kg/injection, schedule: Q01DX001 (sc), vehicle: steriod suspending solution 100 % of control | dose: 400.0 mg/kg/injection, schedule: Q01DX001 (sc), vehicle: steriod suspending solution 94 % of control

Nc1c(Cl)ncnc1Nc1cccc(C(F)(F)F)c1
inactive: [9] 92 % of control | [10] 97 % of control | [11] 104 % of control

COC(=O)/C=C/c1cccc([N+](=O)[O-])c1
inactive: [1] 100 % of control | [4] 100 % of control | [12] 100 % of control

COc1ccc2nc3cc(Cl)ccc3c(Nc3ccc(O)c(CN(CCCl)CCCl)c3)c2c1
inactive: dose: 0.3 mg/kg/injection, schedule: Q01DX Z (ip), vehicle: saline 118 % of control | dose: 4.8 mg/kg/injection, schedule: Q01DX Z (ip), vehicle: saline 94 % of control | dose: 5.0 mg/kg/injection, schedule: Q01DX001 (ip), vehicle: saline 111 % of control | dose: 7.5 mg/kg/injection, schedule: Q04DX003 (ip), vehicle: saline 120 % of control | dose: 10.0 mg/kg/injection, schedule: Q01DX001 (ip), vehicle: saline 108 % of control | dose: 20.0 mg/kg/injection, schedule: Q01DX001 (ip), vehicle: saline 104 % of control | [1] 87 % of control

Cc1cccc(-c2nc3ncnc(N)c3[nH]2)c1
inactive: dose: 6.25 mg/kg/injection, schedule: Q01DX001 (ip), vehicle: saline with Tween-80 95 % of control | dose: 12.5 mg/kg/injection, schedule: Q01DX001 (ip), vehicle: saline with Tween-80 97 % of control | dose: 25.0 mg/kg/injection, schedule: Q01DX001 (ip), vehicle: saline with Tween-80 101 % of control

CCCCCCCCCCCC(=O)c1ccccc1
inactive: [13] 86 % of control | [14] 91 % of control | [15] 94 % of control

CC(C)=CCC(C#N)(CCN(C)C)c1cccc2ccccc12 (configuration not stated)
inactive: dose: 25.0 mg/kg/injection, schedule: Q01DX009 (ip), vehicle: saline 98 % of control | [16] 101 % of control | [2] 94 % of control | [17] 98 % of control

O=C(Nc1cccc2ccccc12)c1ccc(C(=O)Nc2cccc3ccccc23)c(C(=O)O)c1
inactive: dose: 50.0 mg/kg/injection, schedule: Q04DX002 (ip), vehicle: gum acacia 94 % of control | dose: 100.0 mg/kg/injection, schedule: Q04DX002 (ip), vehicle: gum acacia 90 % of control | dose: 200.0 mg/kg/injection, schedule: Q04DX002 (ip), vehicle: gum acacia 94 % of control

N#CCCC(C#N)(c1ccncc1)N1CCOCC1 (configuration not stated)
inactive: [18] 105 % of control | [19] 102 % of control | [20] 94 % of control and 91 % of control

c1ccc(N=NNc2ccccc2)cc1
inactive: dose: 6.25 mg/kg/injection, schedule: Q01DX009 (ip), vehicle: saline with Tween-80 100 % of control | [18] 94 % of control | [19] 98 % of control

C/C=C\c1ccc(OCCOC(=O)Nc2cccc(C(F)(F)F)c2)c(OC)c1
inactive: [20] 102 % of control | [21] 98 % of control and 91 % of control | [22] 95 % of control and 90 % of control | [23] 98 % of control

COC1=C(Br)C(=O)C(OC)=C(Br)C1=O
inactive: dose: 25.0 mg/kg/injection, schedule: Q04DX003 (ip), vehicle: saline with Tween-80 95 % of control | dose: 50.0 mg/kg/injection, schedule: Q04DX003 (ip), vehicle: saline with Tween-80 92 % of control | [24] 91 % of control

CN(C)C(=NN)N(C)C
inactive: dose: 50.0 mg/kg/injection, schedule: Q04DX003 (ip), vehicle: saline 105 % of control | [17] 100 % of control | [25] 100 % of control

Cc1cc(N)c2cc(NC(=O)CCCCCCCC(=O)Nc3ccc4nc(C)cc(N)c4c3)ccc2n1
inactive: dose: 20.0 mg/kg/injection, schedule: Q01DX Z (ip), vehicle: methylcellulose (MC) 93 % of control | dose: 33.0 mg/kg/injection, schedule: Q01DX Z (ip), vehicle: methylcellulose (MC) 110 % of control | dose: 50.0 mg/kg/injection, schedule: Q01DX Z (ip), vehicle: methylcellulose (MC) 112 % of control | dose: 75.0 mg/kg/injection, schedule: Q01DX Z (ip), vehicle: methylcellulose (MC) 114 % of control

O=C1CCCCc2ccc([N+](=O)[O-])cc21
inactive: dose: 50.0 mg/kg/injection, schedule: Q01DX001 (ip), vehicle: other 86 % of control | dose: 100.0 mg/kg/injection, schedule: Q01DX001 (ip), vehicle: other 98 % of control | dose: 200.0 mg/kg/injection, schedule: Q01DX001 (ip), vehicle: other 96 % of control | dose: 400.0 mg/kg/injection, schedule: Q01DX001 (ip), vehicle: other 88 % of control

CCC(C)(O)C(=O)O (configuration not stated)
inactive: [3] 114 % of control | [6] 114 % of control

Cn1cc(Cc2ccccc2)c(=O)n(C)c1=O
inactive: [24] 100 % of control | [26] 100 % of control | [27] 106 % of control

S=C(Nc1ccc(Cl)cc1)NC1CC2C=CC1C2 (configuration not stated)
inactive: dose: 100.0 mg/kg/injection, schedule: Q04DX002 (ip), vehicle: saline with Tween-80 101 % of control | dose: 200.0 mg/kg/injection, schedule: Q04DX002 (ip), vehicle: saline with Tween-80 93 % of control

Brc1cscc1-c1cccc2ccccc12
inactive: [21] 86 % of control | [22] 86 % of control

C=C(Cl)CSC(C)(C)C
inactive: [2] 118 % of control | [3] 100 % of control | [5] 100 % of control | [6] 97 % of control | [7] 93 % of control | [8] 93 % of control

COc1ccc(Br)cc1/C=N/N=C/c1cc(Br)ccc1OC
inactive: [21] 89 % of control | [24] 111 % of control | [22] 92 % of control | [26] 93 % of control | [23] 94 % of control | [27] 95 % of control

CC(=O)Nc1ccc(S(N)(=O)=O)cc1
inactive: dose: 50.0 mg/kg/injection, schedule: Q01DX001 (ip), vehicle: carboxymethylcellulose (CMC) 95 % of control | [28] 101 % of control | [13] 103 % of control | [29] 95 % of control | dose: 400.0 mg/kg/injection, schedule: Q01DX001 (ip), vehicle: carboxymethylcellulose (CMC) 97 % of control

CN1CCC=C(CO)C1
inactive: [17] 97 % of control | [25] 107 % of control | dose: 400.0 mg/kg/injection, schedule: Q04DX003 (ip), vehicle: saline 103 % of control

COC(=O)c1[nH]cnc1/N=N/N(C)C1CCCCC1
inactive: [28] 91 % of control | [29] 102 % of control

O=Cc1[nH]c(=S)[nH]c(=O)c1Cc1ccc(Cl)cc1
inactive: [1] 96 % of control | [4] 93 % of control | [12] 96 % of control

CCOC(=O)c1ncc2cnccn12
inactive: [16] 92 % of control | [2] 120 % of control | [17] 107 % of control | [5] 94 % of control | [25] 104 % of control

Cc1ccc(S(=O)(=O)NCCCCCC(=O)O)cc1
inactive: [13] 101 % of control | [9] 98 % of control | [14] 101 % of control | [10] 94 % of control | [15] 100 % of control | [11] 96 % of control
